Experimental data from patent publication US10472356B2, “Bicyclic ketone sulfonamide compounds” (AMGEN INC., priority 2015, dated 2019).

What was measured:
[1] = target: T1, human Nav1.7 (Homo sapiens, UniProt Q15858); assay: Nav 1.7 In Vitro PatchXpress (PX) Assay; assay type: cell-based; conditions: HEK 293 cells stably transfected with human Nav1.7; PatchXpress whole cell voltage clamp; partially inactivated state (holding potential yielding 20 to 50% inactivation); read-out: hNav1.7 PX IC50
T1 construct: expressed in transfected cells; host or cells: HEK293
Procedure: Nav 1.7 In Vitro PatchXpress (PX) Assay
HEK 293 cells stably transfected with human Nav1.7 were recorded in whole cell voltage clamp mode with the PatchXpress automated electrophysiology system (Molecular Devices, LLC, Sunnyvale, Calif.). Compound effects were measured on a partially inactivated state of the sodium channel. Cells were clamped to a holding potential yielding 20 to 50% inactivation. To elicit sodium current, channels were activated by pulsing to −10 mV for 20 msec. This voltage protocol was repeated at a rate of 0.1 Hz throughout the experiment. A single concentration of test compound was applied to cells for a duration of 3 minutes. Peak sodium current was measured at the end of the compound addition period to determine percent inhibition. Three to five cells were tested per concentration, and IC50 curves were fitted to percent inhibition as a function of concentration.

[2] = target: T1, human Nav1.7; assay: Nav 1.7 IWB In Vitro Assay (IonWorks Barracuda); assay type: cell-based; conditions: HEK293 cells stably transfected with human Nav 1.7; IonWorks Barracuda population patch-clamp; cells clamped to −20 mV for 4 minutes with compound; 26th pulse; read-out: hNav1.7 IWB IC50
Procedure: Nav 1.7 IWB In Vitro Assay
HEK293 cells stably transfected with human Nav 1.7 were recorded in population patch-clamp mode with the IonWorks© Barracuda (IWB) automated electrophysiology system (Molecular Devices, LLC, Sunnyvale, Calif.). From a holding potential of −110 mV, sodium currents were elicited by a train of 26 depolarizations of 150 ms duration to −20 mV at a frequency of 5 Hz. Cells were then clamped to −20 mV for a period of 4 minutes in the presence of a single concentration of test compound. Following this compound incubation period, cells were clamped to −110 mV for three seconds to recover unbound channels and put through the same 26 pulse voltage protocol as above. Peak inward current during the 26th pulse to −20 mV in the presence of compound was divided by the peak inward current evoked by the 26th pulse to −20 mV in the absence of compound to determine percent inhibition. Concentration-response curves of percent inhibition as a function of concentration were generated to calculate IC50 values.

T1 sequence (Q15858 whole entry): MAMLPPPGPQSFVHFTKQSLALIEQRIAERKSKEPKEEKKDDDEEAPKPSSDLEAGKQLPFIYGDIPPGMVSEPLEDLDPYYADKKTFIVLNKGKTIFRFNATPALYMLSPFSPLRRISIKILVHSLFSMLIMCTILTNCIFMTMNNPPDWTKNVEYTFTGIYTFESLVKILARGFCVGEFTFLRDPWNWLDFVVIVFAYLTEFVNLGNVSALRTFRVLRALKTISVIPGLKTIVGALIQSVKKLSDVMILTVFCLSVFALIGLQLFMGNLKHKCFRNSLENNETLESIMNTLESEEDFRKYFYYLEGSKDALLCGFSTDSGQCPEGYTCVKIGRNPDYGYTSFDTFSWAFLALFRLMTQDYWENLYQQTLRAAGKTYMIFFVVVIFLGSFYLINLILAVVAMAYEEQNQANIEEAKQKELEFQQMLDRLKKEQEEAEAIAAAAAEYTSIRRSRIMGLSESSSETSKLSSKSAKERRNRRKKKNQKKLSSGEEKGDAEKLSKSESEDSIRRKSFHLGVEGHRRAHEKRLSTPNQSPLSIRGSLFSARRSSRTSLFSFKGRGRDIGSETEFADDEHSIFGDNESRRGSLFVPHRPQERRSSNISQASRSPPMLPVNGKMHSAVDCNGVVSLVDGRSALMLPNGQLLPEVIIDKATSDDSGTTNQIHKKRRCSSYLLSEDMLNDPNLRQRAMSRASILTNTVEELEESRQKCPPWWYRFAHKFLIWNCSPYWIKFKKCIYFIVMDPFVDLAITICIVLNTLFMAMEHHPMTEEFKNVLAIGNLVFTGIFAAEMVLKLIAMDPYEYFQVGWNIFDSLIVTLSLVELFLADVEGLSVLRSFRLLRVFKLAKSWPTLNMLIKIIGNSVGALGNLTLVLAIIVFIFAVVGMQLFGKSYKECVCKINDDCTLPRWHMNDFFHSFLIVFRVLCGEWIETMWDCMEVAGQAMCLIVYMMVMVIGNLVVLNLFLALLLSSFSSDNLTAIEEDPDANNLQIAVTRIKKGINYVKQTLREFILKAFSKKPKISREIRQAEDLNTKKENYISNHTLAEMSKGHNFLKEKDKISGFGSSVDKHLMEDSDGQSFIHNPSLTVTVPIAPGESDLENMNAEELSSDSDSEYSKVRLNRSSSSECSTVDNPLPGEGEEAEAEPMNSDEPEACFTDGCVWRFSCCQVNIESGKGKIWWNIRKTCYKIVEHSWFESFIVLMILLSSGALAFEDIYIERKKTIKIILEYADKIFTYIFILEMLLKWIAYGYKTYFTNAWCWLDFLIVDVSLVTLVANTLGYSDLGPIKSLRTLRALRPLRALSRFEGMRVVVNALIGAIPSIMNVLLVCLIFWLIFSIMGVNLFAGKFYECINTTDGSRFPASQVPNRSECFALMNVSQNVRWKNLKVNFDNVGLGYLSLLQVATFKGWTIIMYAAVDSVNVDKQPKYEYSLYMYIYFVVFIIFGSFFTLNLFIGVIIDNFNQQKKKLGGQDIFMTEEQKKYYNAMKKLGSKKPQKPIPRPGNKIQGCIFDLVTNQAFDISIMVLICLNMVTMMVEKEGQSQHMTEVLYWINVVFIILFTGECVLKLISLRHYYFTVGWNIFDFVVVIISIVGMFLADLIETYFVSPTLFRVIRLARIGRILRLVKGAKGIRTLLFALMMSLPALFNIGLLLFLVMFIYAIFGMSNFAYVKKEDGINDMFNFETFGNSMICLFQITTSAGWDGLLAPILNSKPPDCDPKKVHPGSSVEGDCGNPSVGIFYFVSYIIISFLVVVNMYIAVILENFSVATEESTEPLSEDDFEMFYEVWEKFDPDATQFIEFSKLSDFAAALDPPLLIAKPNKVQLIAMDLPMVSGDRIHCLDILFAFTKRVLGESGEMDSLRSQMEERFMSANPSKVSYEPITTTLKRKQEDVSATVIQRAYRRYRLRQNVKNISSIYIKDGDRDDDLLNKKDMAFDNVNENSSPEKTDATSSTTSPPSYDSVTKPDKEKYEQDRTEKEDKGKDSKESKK

COc1cc(-c2cc(F)cc(Cl)c2)c(F)cc1-n1c2c(ccc1=O)CN(S(=O)(=O)Nc1cc(C)ncn1)CC2 (racemic) [4-(Rac), (Rac)-1-(3′-chloro-2,5′-difluoro-5-methoxy-4-biphenylyl)-N-(6-methyl-4-pyrimidinyl)-2-oxo-1,5,7,8-tetrahydro-1,6-naphthyridine-6(2H)-sulfonamide]
IC50 [1]: 386 nM
IC50 [2]: 45.9 nM

COc1cc(-c2cc(F)cc(Cl)c2)c(F)cc1-n1c2c(ccc1=O)CN(S(=O)(=O)Nc1ccnc(C)n1)CC2 (racemic) [6-(Rac), (Rac)-1-(3′-chloro-2,5′-difluoro-5-methoxy-4-biphenylyl)-N-(2-methyl-4-pyrimidinyl)-2-oxo-1,5,7,8-tetrahydro-1,6-naphthyridine-6(2H)-sulfonamide]
IC50 [1]: 666 nM
IC50 [2]: 101 nM

COc1cc(-c2cc(F)cc(Cl)c2)ccc1-n1c2c(ccc1=O)CN(S(=O)(=O)Nc1ccon1)CC2 (racemic) [7-(Rac), (Rac)-1-(3′-chloro-5′-fluoro-3-methoxy-4-biphenylyl)-N-3-isoxazolyl-2-oxo-1,5,7,8-tetrahydro-1,6-naphthyridine-6(2H)-sulfonamide]
IC50 [1]: 254 nM
IC50 [2]: 16.7 nM

COc1cc(-c2cc(F)cc(Cl)c2)ccc1-n1c2c(ccc1=O)CN(S(=O)(=O)Nc1cccnn1)CC2 (racemic) [8-(Rac), (Rac)-1-(3′-chloro-5′-fluoro-3-methoxy-4-biphenylyl)-2-oxo-N-3-pyridazinyl-1,5,7,8-tetrahydro-1,6-naphthyridine-6(2H)-sulfonamide]
IC50 [1]: 350 nM
IC50 [2]: 31.7 nM

COc1cc(-c2cc(F)cc(F)c2)c(F)cc1-n1c2c(ccc1=O)CN(S(=O)(=O)Nc1ncc(F)cn1)CC2 (racemic) [Example 10-(Rac), (Rac)-N-(5-fluoro-2-pyrimidinyl)-2-oxo-1-(2,3′,5′-trifluoro-5-methoxy-4-biphenylyl)-1,5,7,8-tetrahydro-1,6-naphthyridine-6(2H)-sulfonamide]
IC50 [1]: 2280 nM
IC50 [2]: 163 nM

COc1cc(-c2cc(F)cc(Cl)c2)c(F)cc1-n1c2c(ccc1=O)CN(S(=O)(=O)Nc1ccccn1)CC2 (racemic) [Example 11-(Rac), (Rac)-1-(3′-chloro-2,5′-difluoro-5-methoxy-4-biphenylyl)-2-oxo-N-2-pyridinyl-1,5,7,8-tetrahydro-1,6-naphthyridine-6(2H)-sulfonamide]
IC50 [1]: 371 nM
IC50 [2]: 60.9 nM

COc1cc(-c2cc(F)cc(F)c2)c(F)cc1-n1c2c(ccc1=O)CN(S(=O)(=O)Nc1ncon1)CC2 (racemic) [Example 17-(Rac), (Rac)-N-1,2,4-oxadiazol-3-yl-2-oxo-1-(2,3′,5′-trifluoro-5-methoxy-4-biphenylyl)-1,5,7,8-tetrahydro-1,6-naphthyridine-6(2H)-sulfonamide]
IC50 [1]: 1120 nM
IC50 [2]: 191 nM

COc1cc(-c2ccc(F)c(F)c2)c(F)cc1-n1c2c(ccc1=O)CN(S(=O)(=O)Nc1ncccn1)CC2 (racemic) [Example 28-(Rac), (Rac)-2-oxo-N-2-pyrimidinyl-1-(2,3′,4′-trifluoro-5-methoxy-4-biphenylyl)-1,5,7,8-tetrahydro-1,6-naphthyridine-6(2H)-sulfonamide]
IC50 [1]: 1680 nM
IC50 [2]: 199 nM

COc1cc(-c2ccc(F)c(C)c2)c(F)cc1-n1c2c(ccc1=O)CN(S(=O)(=O)Nc1ncccn1)CC2 (racemic) [Example 29-(Rac), (Rac)-1-(2,4′-difluoro-5-methoxy-3′-methyl-4-biphenylyl)-2-oxo-N-2-pyrimidinyl-1,5,7,8-tetrahydro-1,6-naphthyridine-6(2H)-sulfonamide]
IC50 [1]: 1170 nM
IC50 [2]: 122 nM

COc1cc(-c2ccc(Cl)c(C)c2)c(F)cc1-n1c2c(ccc1=O)CN(S(=O)(=O)Nc1ncccn1)CC2 (racemic) [Example 30, (Rac)-1-(4′-chloro-2-fluoro-5-methoxy-3′-methyl-4-biphenylyl)-2-oxo-N-2-pyrimidinyl-1,5,7,8-tetrahydro-1,6-naphthyridine-6(2H)-sulfonamide]
IC50 [1]: 993 nM
IC50 [2]: 44.3 nM

COc1nc(-c2cc(F)cc(Cl)c2)c(F)cc1-n1c2c(ccc1=O)CN(S(=O)(=O)Nc1ccon1)CC2 (racemic) [Example 36, (Rac)-1-(6-(3-chloro-5-fluorophenyl)-5-fluoro-2-methoxy-3-pyridinyl)-N-3-isoxazolyl-2-oxo-1,5,7,8-tetrahydro-1,6-naphthyridine-6(2H)-sulfonamide]
IC50 [1]: 423 nM
IC50 [2]: 173 nM

COc1cc(-c2ccc(Cl)c(C)c2)c(F)cc1-n1c2c(ccc1=O)CN(S(=O)(=O)Nc1cc(C)ncn1)CC2 (racemic) [Example 40, (Rac)-1-(4′-chloro-2-fluoro-5-methoxy-3′-methyl-4-biphenylyl)-N-(6-methyl-4-pyrimidinyl)-2-oxo-1,5,7,8-tetrahydro-1,6-naphthyridine-6(2H)-sulfonamide]
IC50 [1]: 204 nM
IC50 [2]: 42.3 nM

COc1cc(-c2cccc(C(F)(F)F)c2)c(Cl)cc1-n1c2c(ccc1=O)CN(S(=O)(=O)Nc1cccnn1)CC2 (racemic) [Example 91-(Rac), (Rac)-1-(2-chloro-5-methoxy-3′-(trifluoromethyl)-[1,1′-biphenyl]-4-yl)-2-oxo-N-(pyridazin-3-yl)-1,2,7,8-tetrahydro-1,6-naphthyridine-6(5H)-sulfonamide]
IC50 [1]: 29.9 nM
IC50 [2]: 11.2 nM

COc1cc(-c2ccc(F)c(C)c2)c(Cl)cc1-n1c2c(ccc1=O)CN(S(=O)(=O)Nc1cccnn1)CC2 (racemic) [Example 92-(Rac), (Rac)-1-(2-chloro-4′-fluoro-5-methoxy-3′-methyl-[1,1′-biphenyl]-4-yl)-2-oxo-N-(pyridazin-3-yl)-1,2,7,8-tetrahydro-1,6-naphthyridine-6(5H)-sulfonamide]
IC50 [1]: 63.5 nM
IC50 [2]: 23.6 nM

COc1cc(-c2cc(F)cc(F)c2)c(F)cc1-n1c2c(ccc1=O)[C@@H](C)N(S(=O)(=O)Nc1ccon1)CC2 (single isomer, unassigned) [Example 3-A-M]
IC50 [1]: > 1000 nM
IC50 [2]: 2800 nM

COc1cc(-c2cc(F)cc(F)c2)c(F)cc1-n1c2c(ccc1=O)CN(S(=O)(=O)Nc1ccon1)[C@@H](C)C2 (single isomer, unassigned) [Example 3-C-M]
IC50 [1]: > 1000 nM
IC50 [2]: 8520 nM

COc1cc(-c2cc(F)cc(F)c2)c(F)cc1-n1c2c(ccc1=O)CN(S(=O)(=O)Nc1ccon1)[C@@H](C)C2 (single isomer, unassigned) [Example 3-C-P]
IC50 [1]: > 1000 nM
IC50 [2]: > 30000 nM

COc1cc(-c2cc(F)cc(Cl)c2)ccc1-n1c2c(ccc1=O)CN(S(=O)(=O)Nc1cccnn1)CC2 (single isomer, unassigned) [Example 8-P, P-1-(3′-chloro-5′-fluoro-3-methoxy-4-biphenylyl)-2-oxo-N-3-pyridazinyl-1,5,7,8-tetrahydro-1,6-naphthyridine-6(2H)-sulfonamide]
IC50 [1]: 241 nM
IC50 [2]: 25.9 nM

COc1cc(-c2cc(Cl)ccc2C)c(F)cc1-n1c2c(ccc1=O)CN(S(=O)(=O)Nc1ccon1)CC2 (single isomer, unassigned) [Example 9-M, M-1-(5′-chloro-2-fluoro-5-methoxy-2′-methyl-4-biphenylyl)-N-3-isoxazolyl-2-oxo-1,5,7,8-tetrahydro-1,6-naphthyridine-6(2H)-sulfonamide]
IC50 [1]: 772 nM
IC50 [2]: 55 nM

COc1cc(-c2cc(F)cc(F)c2)c(F)cc1-n1c2c(ccc1=O)CN(S(=O)(=O)Nc1ncc(F)cn1)CC2 (single isomer, unassigned) [Example 10-M, M-N-(5-fluoro-2-pyrimidinyl)-2-oxo-1-(2,3′,5′-trifluoro-5-methoxy-4-biphenylyl)-1,5,7,8-tetrahydro-1,6-naphthyridine-6(2H)-sulfonamide]
IC50 [1]: 612 nM
IC50 [2]: 102 nM

COc1cc(-c2cc(F)cc(F)c2)c(F)cc1-n1c2c(ccc1=O)CN(S(=O)(=O)Nc1ncc(F)cn1)CC2 (single isomer, unassigned) [Example 10-P, P-N-(5-fluoro-2-pyrimidinyl)-2-oxo-1-(2,3′,5′-trifluoro-5-methoxy-4-biphenylyl)-1,5,7,8-tetrahydro-1,6-naphthyridine-6(2H)-sulfonamide]
IC50 [1]: 644 nM
IC50 [2]: 52.9 nM

COc1ccc(-c2cccc(Cl)c2C)cc1-n1c2c(ccc1=O)CN(S(=O)(=O)Nc1cccnn1)CC2 [Example 57-P, P-1-(3′-chloro-4-methoxy-2′-methyl-3-biphenylyl)-2-oxo-N-3-pyridazinyl-1,5,7,8-tetrahydro-1,6-naphthyridine-6(2H)-sulfonamide]
IC50 [1]: 232 nM
